Measurements published in ChEMBL document CHEMBL1201862, “PubChem BioAssay data set” (2004).
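Where inhibition never reached the appropriate level, the endpoint shown equals the highest concentration tested. Otherwise, values were interpolated linearly from a five-concentration, 48-hour dose response in 96-well plates. GI50 is the concentration that inhibits growth by half.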 The source made the active and inactive calls. No stated cut-off is given here; in the data, active = GI50 up to about 1.1 µM and inactive = higher.

How the values were obtained:
Experiment in all cases: NCI-60 cell line screen, 48 h
[1] = tested on: TK-10
[2] = tested on: T47D
[3] = tested on: SK-MEL-28
[4] = tested on: Hs-578T
[5] = tested on: SNB-75
[6] = tested on: NCI-H23
[7] = tested on: SK-OV-3
[8] = tested on: PC-3
[9] = tested on: MOLT-4
[10] = tested on: SF-268
[11] = tested on: COLO 205
[12] = tested on: NCI-H522
[13] = tested on: M14
[14] = tested on: SNB-19
[15] = tested on: MDA-MB-435
[16] = tested on: A498
[17] = tested on: RXF 393
[18] = tested on: HL-60
[19] = tested on: OVCAR-4
[20] = tested on: KM12
[21] = tested on: HT-29
[22] = tested on: SW-620
[23] = tested on: UACC-257
[24] = tested on: 786-0
[25] = tested on: IGROV-1
[26] = tested on: SF-539
[27] = tested on: NCI-H226
[28] = tested on: LOX IMVI
[29] = tested on: U-251
[30] = tested on: HOP-92
[31] = tested on: OVCAR-5
[32] = tested on: NCI/ADR-RES
[33] = tested on: Malme-3M
[34] = tested on: UACC-62
[35] = tested on: NCI-H460
[36] = tested on: ACHN
[37] = tested on: SK-MEL-5
[38] = tested on: HCT-15
[39] = tested on: A549
[40] = tested on: HCT-116
[41] = tested on: DU-145
[42] = tested on: CCRF-CEM
[43] = tested on: SF-295
[44] = tested on: OVCAR-3
[45] = tested on: OVCAR-8
[46] = tested on: K562
[47] = tested on: SR
[48] = tested on: UO-31
[49] = tested on: SK-MEL-2
[50] = tested on: MCF7
[51] = tested on: BT-549
[52] = tested on: CAKI-1
[53] = tested on: MDA-MB-231
[54] = tested on: RPMI-8226
[55] = tested on: HOP-62
[56] = tested on: MDA-N
[57] = tested on: SN12C
[58] = tested on: EKVX
[59] = tested on: HCC 2998

O=C(CC(Cl)=C(Cl)Cl)c1ccccc1
GI50 [1]: > 100 µM (inactive)
GI50 [2]: 34.7 µM (inactive)
GI50 [3]: 55.7 µM (inactive)
GI50 [4]: > 100 µM (inactive)
GI50 [5]: > 100 µM (inactive)
GI50 [6]: 81.1 µM (inactive)
GI50 [7]: > 100 µM (inactive)
GI50 [8]: > 100 µM (inactive)
GI50 [9]: 12.3 µM (inactive)
GI50 [10]: > 100 µM (inactive)
GI50 [11]: 28.8 µM (inactive)
GI50 [12]: 23.9 µM (inactive)
GI50 [13]: 49.5 µM (inactive)
GI50 [14]: > 100 µM (inactive)
GI50 [15]: 36.3 µM (inactive)
GI50 [16]: > 100 µM (inactive)
GI50 [17]: 21.2 µM (inactive)
GI50 [18]: 55.8 µM (inactive)
GI50 [19]: 17.5 µM (inactive)
GI50 [20]: 53.1 µM (inactive)
GI50 [21]: 31.6 µM (inactive)
GI50 [22]: 38.3 µM (inactive)
GI50 [23]: 27.4 µM (inactive)
GI50 [24]: 21.8 µM (inactive)
GI50 [25]: 80 µM (inactive)
GI50 [26]: > 100 µM (inactive)
GI50 [27]: 28.9 µM (inactive)
GI50 [28]: 15 µM (inactive)
GI50 [29]: 57.1 µM (inactive)
GI50 [30]: > 100 µM (inactive)
GI50 [31]: 46 µM (inactive)
GI50 [32]: 74.8 µM (inactive)
GI50 [33]: 31.8 µM (inactive)
GI50 [34]: 37.5 µM (inactive)
GI50 [35]: > 100 µM (inactive)
GI50 [36]: 43.5 µM (inactive)
GI50 [37]: > 100 µM (inactive)
GI50 [38]: 24.8 µM
GI50 [39]: > 100 µM (inactive)
GI50 [40]: 21.3 µM (inactive)
GI50 [41]: > 100 µM (inactive)
GI50 [42]: 13.7 µM (inactive)
GI50 [43]: > 100 µM (inactive)
GI50 [44]: 27 µM (inactive)
GI50 [45]: > 100 µM (inactive)
GI50 [46]: 21.5 µM (inactive)
GI50 [47]: 21.4 µM (inactive)
GI50 [48]: 80.2 µM (inactive)
GI50 [49]: > 100 µM (inactive)
GI50 [50]: > 100 µM (inactive)
GI50 [51]: 66.1 µM (inactive)
GI50 [52]: 24.1 µM (inactive)
GI50 [53]: 34.8 µM (inactive)
GI50 [54]: 18 µM (inactive)
GI50 [55]: > 100 µM (inactive)

Cc1ccc(S(=O)(=O)NC(=O)N[C@@H](Cc2c[nH]cn2)C(=O)O)cc1
GI50 [1]: > 100 µM (inactive)
GI50 [2]: > 100 µM (inactive)
GI50 [3]: > 100 µM (inactive)
GI50 [4]: > 100 µM (inactive)
GI50 [56]: > 100 µM (inactive)
GI50 [5]: > 100 µM (inactive)
GI50 [6]: > 100 µM (inactive)
GI50 [57]: > 100 µM (inactive)
GI50 [7]: > 100 µM (inactive)
GI50 [8]: > 100 µM (inactive)
GI50 [9]: > 100 µM (inactive)
GI50 [10]: > 100 µM (inactive)
GI50 [11]: > 100 µM (inactive)
GI50 [12]: > 100 µM (inactive)
GI50 [13]: > 100 µM (inactive)
GI50 [14]: > 100 µM (inactive)
GI50 [17]: > 100 µM (inactive)
GI50 [18]: > 100 µM (inactive)
GI50 [19]: > 100 µM (inactive)
GI50 [20]: > 100 µM (inactive)
GI50 [21]: > 100 µM (inactive)
GI50 [22]: > 100 µM (inactive)
GI50 [23]: > 100 µM (inactive)
GI50 [24]: > 100 µM (inactive)
GI50 [25]: > 100 µM (inactive)
GI50 [26]: > 100 µM (inactive)
GI50 [28]: > 100 µM (inactive)
GI50 [29]: > 100 µM (inactive)
GI50 [30]: > 100 µM (inactive)
GI50 [31]: > 100 µM (inactive)
GI50 [32]: > 100 µM (inactive)
GI50 [33]: > 100 µM (inactive)
GI50 [34]: > 100 µM (inactive)
GI50 [35]: > 100 µM (inactive)
GI50 [36]: > 100 µM (inactive)
GI50 [37]: > 100 µM (inactive)
GI50 [38]: > 100 µM
GI50 [39]: > 100 µM (inactive)
GI50 [40]: > 100 µM (inactive)
GI50 [41]: > 100 µM (inactive)
GI50 [42]: > 100 µM (inactive)
GI50 [43]: > 100 µM (inactive)
GI50 [45]: > 100 µM (inactive)
GI50 [46]: > 100 µM (inactive)
GI50 [48]: > 100 µM (inactive)
GI50 [49]: > 100 µM (inactive)
GI50 [50]: > 100 µM (inactive)
GI50 [51]: > 100 µM (inactive)
GI50 [53]: > 100 µM (inactive)
GI50 [54]: 37.3 µM (inactive)
GI50 [55]: > 100 µM (inactive)

COC(=O)Cc1cccc2c(=O)c(S(=O)(=O)NC(=O)Nc3ccc(Cl)cc3)c(-c3ccccc3)oc12
GI50 [1]: > 100 µM (inactive)
GI50 [58]: > 100 µM (inactive)
GI50 [3]: 34.6 µM (inactive)
GI50 [4]: > 100 µM (inactive)
GI50 [56]: > 100 µM (inactive)
GI50 [5]: > 100 µM (inactive)
GI50 [6]: 57 µM (inactive)
GI50 [57]: 36.6 µM (inactive)
GI50 [7]: > 100 µM (inactive)
GI50 [8]: 16.3 µM (inactive)
GI50 [9]: 17.1 µM (inactive)
GI50 [10]: 73.5 µM (inactive)
GI50 [11]: 34.4 µM (inactive)
GI50 [12]: 16.4 µM (inactive)
GI50 [13]: > 100 µM (inactive)
GI50 [14]: 44.6 µM (inactive)
GI50 [15]: 11.3 µM (inactive)
GI50 [19]: > 100 µM (inactive)
GI50 [20]: 34.4 µM (inactive)
GI50 [21]: 74.5 µM (inactive)
GI50 [22]: 13.9 µM (inactive)
GI50 [23]: 87.5 µM (inactive)
GI50 [24]: > 100 µM (inactive)
GI50 [25]: 38.5 µM (inactive)
GI50 [26]: 58.5 µM (inactive)
GI50 [27]: > 100 µM (inactive)
GI50 [28]: 13.5 µM (inactive)
GI50 [29]: 50.6 µM (inactive)
GI50 [59]: 54.6 µM (inactive)
GI50 [30]: 29.6 µM (inactive)
GI50 [31]: > 100 µM (inactive)
GI50 [32]: > 100 µM (inactive)
GI50 [34]: 13.5 µM (inactive)
GI50 [35]: 32.7 µM (inactive)
GI50 [36]: 12.2 µM (inactive)
GI50 [37]: 30.2 µM (inactive)
GI50 [38]: 8.75 µM
GI50 [39]: 69.2 µM (inactive)
GI50 [40]: 33.3 µM (inactive)
GI50 [41]: > 100 µM (inactive)
GI50 [42]: 15.9 µM (inactive)
GI50 [43]: 67.9 µM (inactive)
GI50 [44]: 79.8 µM (inactive)
GI50 [45]: 69.3 µM (inactive)
GI50 [46]: 4.3 µM (inactive)
GI50 [47]: 36.9 µM (inactive)
GI50 [48]: 25.8 µM (inactive)
GI50 [50]: 47.8 µM (inactive)
GI50 [51]: 55.6 µM (inactive)
GI50 [52]: 24.3 µM (inactive)
GI50 [53]: 29.2 µM (inactive)
GI50 [55]: > 100 µM (inactive)
